Converted amounts (≈) assume the structure as drawn.
Experiments:
[1] = system: P815; assay: Anticancer activity against mouse P815 cells assessed as reduction in cell viability measured for 48 hrs by MTT assay; assay type: functional, cell-based; conditions: P815, 48 h
[2] = Anticancer activity against human HEP cells assessed as reduction in cell viability measured for 48 hrs by MTT assay; assay type: toxicity, cell-based
[3] = system: Human immunodeficiency virus 1; assay: Antiviral activity against HIV-1 infected in human HOG.R5 cells assessed as reduction in viral growth; assay type: functional, organism-based; conditions: Human immunodeficiency virus 1, HOG.R5
[4] = Cytotoxicity against human HOG.R5 cells; assay type: functional, cell-based
[5] = system: L1210; assay: Cytotoxicity against mouse L1210 cells; assay type: functional, cell-based
[6] = system: KB; assay: Cytotoxicity against human KB cells; assay type: functional, cell-based
[7] = biological target: Cannabinoid receptor 2 (Mus musculus, UniProt P47936); assay: Binding affinity to mouse CB2 receptor extracted from HEK293 cell membrane assessed as inhibition constant; assay type: cell membranes
Sequence of Cannabinoid receptor 2 (P47936 whole entry): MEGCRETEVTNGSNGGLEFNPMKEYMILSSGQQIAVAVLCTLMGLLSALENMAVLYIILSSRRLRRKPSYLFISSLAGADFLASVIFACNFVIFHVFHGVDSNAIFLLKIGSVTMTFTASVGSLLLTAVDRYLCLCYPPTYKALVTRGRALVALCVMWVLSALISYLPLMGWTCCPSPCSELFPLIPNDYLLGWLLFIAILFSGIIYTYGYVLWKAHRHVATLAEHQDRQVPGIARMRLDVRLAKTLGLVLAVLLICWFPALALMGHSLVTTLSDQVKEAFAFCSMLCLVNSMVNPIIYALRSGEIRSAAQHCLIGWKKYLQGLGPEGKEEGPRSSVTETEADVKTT

[8] = biological target: Cannabinoid receptor 1 (Rattus norvegicus, UniProt P20272); assay: Binding affinity to rat brain CB1 receptor assessed as inhibition constant; assay type: tissue-based
Sequence of Cannabinoid receptor 1 (P20272 whole entry): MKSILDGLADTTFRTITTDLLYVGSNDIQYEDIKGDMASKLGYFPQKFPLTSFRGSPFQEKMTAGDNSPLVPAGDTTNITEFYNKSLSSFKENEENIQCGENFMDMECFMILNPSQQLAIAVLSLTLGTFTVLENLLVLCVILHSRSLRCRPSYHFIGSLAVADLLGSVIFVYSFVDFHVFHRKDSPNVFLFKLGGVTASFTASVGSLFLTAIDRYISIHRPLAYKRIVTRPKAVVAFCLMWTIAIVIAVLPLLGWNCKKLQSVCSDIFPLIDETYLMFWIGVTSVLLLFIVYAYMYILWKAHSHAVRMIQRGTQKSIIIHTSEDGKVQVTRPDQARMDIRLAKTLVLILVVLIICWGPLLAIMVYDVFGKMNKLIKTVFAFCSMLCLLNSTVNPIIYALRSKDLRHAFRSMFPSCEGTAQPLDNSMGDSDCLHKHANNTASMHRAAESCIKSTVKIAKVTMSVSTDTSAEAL

With `CCCCCCCCCCCCCC[C@@H]1CCCN1C` the IC50 [1] was 10 µg/mL (≈ 35.5 µM) and the IC50 [2] was 5 µg/mL (≈ 17.8 µM).
Compound `CC(C)=CCC/C(C)=C/[C@H]1C(=O)C(C)=C[C@@H]1O` has an IC50 [3] of 5 µg/mL (≈ 21.3 µM) and an IC50 [4] of 13.2 µg/mL (≈ 56.3 µM).
For `C=C1/C=C(\C)[C@@H](C)[C@@H](O)CC(=O)[C@@H](C)CC(=O)C[C@H]2CC[C@@H](O2)[C@@H](/C=C/C=C(C)C)OC(=O)C[C@@H]2O[C@H](C[C@H]2C)[C@H](O)[C@@H]1O`, the IC50 [5] was 1.5 µg/mL (≈ 2.43 µM) and the IC50 [6] was 3.2 µg/mL (≈ 5.19 µM).
With `CCCCCCC1(c2cc(O)c3c(c2)OC(C)(C)[C@@H]2CC[C@@H](O)C[C@@H]32)CN(C)C1` the Ki [7] was 21.3 nM and the Ki [8] was 19.2 nM.
With `COCOc1cc(C2=NCCC2)cc2c1[C@@H]1C[C@H](OCOC)CC[C@H]1C(C)(C)O2` the Ki [7] was 12.3 nM and the Ki [8] was 16.3 nM.
In the case of `C=C1/C=C(\C)[C@@H](C)[C@@H](O)CC(=O)[C@@H](C)CC(=O)C[C@H]2CC[C@@H](O2)[C@@H](/C=C/C=C(\C)[C@@H](O)C(=C)CCCC)OC(=O)C[C@@H]2O[C@H](C[C@H]2C)[C@H](O)[C@@H]1O`, the IC50 [5] is reported as 0.0058 µg/mL (≈ 0.00811 µM) and the IC50 [6] is reported as 0.0046 µg/mL (≈ 0.00643 µM).
For `CC(C)=CCC/C(C)=C\[C@H]1C(=O)C(C)=C[C@@H]1O`, the IC50 [3] was 2 µg/mL (≈ 8.53 µM) and the IC50 [4] was 5.7 µg/mL (≈ 24.3 µM).

From ChEMBL document CHEMBL6182886, “The Liebeskind-Srogl cross-coupling reaction towards the synthesis of biologically active compounds” (Eur J Med Chem, 2025)
